PMC10408569, “Recruitment of hexahydroquinoline as anticancer scaffold targeting inhibition of wild and mutants EGFR (EGFR^WT, EGFR^T790M, and EGFR^L858R)” (Journal of Enzyme Inhibition and Medicinal Chemistry, 2023)

What was measured:
Assay in all cases: NCI-60 anticancer screening (SRB)
Assay type in all cases: cell-based
M14 = details: Homo sapiens; M14, melanoma; one dose 10 μM; read-out: Growth Inhibition Percentage (GI %)
SF-295 = details: Homo sapiens; SF-295, CNS cancer; one dose 10 μM; read-out: Growth Inhibition Percentage (GI %)
UACC-62 = details: Homo sapiens; UACC-62, melanoma; one dose 10 μM; read-out: Growth Inhibition Percentage (GI %)
DU-145 = details: Homo sapiens; DU-145, prostate cancer; one dose 10 μM; read-out: Growth Inhibition Percentage (GI %)
HOP-92 = details: Homo sapiens; HOP-92, NSC lung cancer; one dose 10 μM; read-out: Growth Inhibition Percentage (GI %)
SF-539 = details: Homo sapiens; SF-539, CNS cancer; one dose 10 μM; read-out: Growth Inhibition Percentage (GI %)
MDA-MB-231 = details: Homo sapiens; MDA-MB-231, breast cancer; one dose 10 μM; read-out: Growth Inhibition Percentage (GI %)
UO-31 = details: Homo sapiens; UO-31, renal cancer; one dose 10 μM; read-out: Growth Inhibition Percentage (GI %)
BT-549 = details: Homo sapiens; BT-549, breast cancer; one dose 10 μM; read-out: Growth Inhibition Percentage (GI %)
TK-10 = details: Homo sapiens; TK-10, renal cancer; one dose 10 μM; read-out: Growth Inhibition Percentage (GI %)
HT29 = details: Homo sapiens, HT-29; HT29, colon cancer; one dose 10 μM; read-out: Growth Inhibition Percentage (GI %)
EKVX = details: Homo sapiens, NSC lung cancer, one dose 10 μM, read-out: Growth Inhibition Percentage (GI %)
MALME-3M = details: Homo sapiens, melanoma, one dose 10 μM, read-out: Growth Inhibition Percentage (GI %)
IGROV1 = details: Homo sapiens, IGROV-1; IGROV1, ovarian cancer; one dose 10 μM; read-out: Growth Inhibition Percentage (GI %)
A498 = details: Homo sapiens; A498, renal cancer; one dose 10 μM; read-out: Growth Inhibition Percentage (GI %)
COLO 205 = details: Homo sapiens; COLO 205, colon cancer; one dose 10 μM; read-out: Growth Inhibition Percentage (GI %)
HS 578T = details: Homo sapiens; HS 578T, breast cancer; one dose 10 μM; read-out: Growth Inhibition Percentage (GI %)
NCI/ADR-RES = details: Homo sapiens, ovarian cancer, one dose 10 μM, read-out: Growth Inhibition Percentage (GI %)
786-0 = details: Homo sapiens; 786-0, renal cancer; one dose 10 μM; read-out: Growth Inhibition Percentage (GI %)
NCI-H460 = details: Homo sapiens; NCI-H460, NSC lung cancer; one dose 10 μM; read-out: Growth Inhibition Percentage (GI %)
SN 12C = details: Homo sapiens, SN12C; SN 12C, renal cancer; one dose 10 μM; read-out: Growth Inhibition Percentage (GI %)
PC-3 = details: Homo sapiens; PC-3, prostate cancer; one dose 10 μM; read-out: Growth Inhibition Percentage (GI %)
MCF7 = details: Homo sapiens; MCF7, breast cancer; one dose 10 μM; read-out: Growth Inhibition Percentage (GI %)
CCRF-CEM = details: Homo sapiens, leukemia, one dose 10 μM, read-out: Growth Inhibition Percentage (GI %)
CAKI-1 = details: Homo sapiens; CAKI-1, renal cancer; one dose 10 μM; read-out: Growth Inhibition Percentage (GI %)
HCT-116 = details: Homo sapiens; HCT-116, colon cancer; one dose 10 μM; read-out: Growth Inhibition Percentage (GI %)
SK-MEL-28 = details: Homo sapiens; SK-MEL-28, melanoma; one dose 10 μM; read-out: Growth Inhibition Percentage (GI %)
U251 = details: Homo sapiens, U-251; U251, CNS cancer; one dose 10 μM; read-out: Growth Inhibition Percentage (GI %)

SMILES | inhibition at 10 µM (M14) | inhibition at 10 µM (SF-295) | inhibition at 10 µM (UACC-62) | inhibition at 10 µM (DU-145) | inhibition at 10 µM (HOP-92) | inhibition at 10 µM (SF-539) | inhibition at 10 µM (MDA-MB-231) | inhibition at 10 µM (UO-31) | inhibition at 10 µM (BT-549) | inhibition at 10 µM (TK-10) | inhibition at 10 µM (HT29) | inhibition at 10 µM (EKVX) | inhibition at 10 µM (MALME-3M) | inhibition at 10 µM (IGROV1) | inhibition at 10 µM (A498) | inhibition at 10 µM (COLO 205) | inhibition at 10 µM (HS 578T) | inhibition at 10 µM (NCI/ADR-RES) | inhibition at 10 µM (786-0) | inhibition at 10 µM (NCI-H460) | also measured
CCOC(=O)C1=C(N)N(c2ccccc2)C2=C(C(=O)CC(C)(C)C2)C1c1ccccc1OC (racemic) [6g, (±)-Ethyl 2-amino-4–(2-methoxyphenyl)-7,7-dimethyl-5-oxo-1-phenyl-1,4,5,6,7,8-hexahydroquinoline-3-carboxylate] | < 10% | 11% | < 10% | < 10% | < 10% | < 10% | < 10% | 26% | < 10% | < 10% | < 10% | < 10% | < 10% | < 10% | < 10% | < 10% | < 10% | < 10% | < 10% | < 10% | inhibition at 10 µM (SN 12C): < 10%; inhibition at 10 µM (PC-3): 11%; inhibition at 10 µM (MCF7): < 10%; inhibition at 10 µM (CCRF-CEM): < 10%; inhibition at 10 µM (CAKI-1): < 10%; inhibition at 10 µM (HCT-116): < 10%; inhibition at 10 µM (SK-MEL-28): < 10%; inhibition at 10 µM (U251): < 10%
CCOC(=O)C1=C(N)N(c2ccc(C)cc2)C2=C(C(=O)CC(C)(C)C2)C1c1ccccc1OC (racemic) [6h, (±)-Ethyl 2-amino-4–(2-methoxyphenyl)-7,7-dimethyl-1–(4-methylphenyl)-5-oxo-1,4,5,6,7,8-hexahydroquinoline-3-carboxylate] | < 10% | < 10% | < 10% | < 10% | < 10% | < 10% | < 10% | 21% | < 10% | < 10% | < 10% | < 10% | < 10% | < 10% | < 10% | < 10% | < 10% | < 10% | < 10% | < 10% | inhibition at 10 µM (SN 12C): < 10%; inhibition at 10 µM (PC-3): < 10%; inhibition at 10 µM (MCF7): < 10%; inhibition at 10 µM (CCRF-CEM): < 10%; inhibition at 10 µM (CAKI-1): < 10%; inhibition at 10 µM (HCT-116): < 10%; inhibition at 10 µM (SK-MEL-28): < 10%; inhibition at 10 µM (U251): < 10%
CCOC(=O)C1=C(N)N(c2ccc(C)cc2)C2=C(C(=O)CC(C)(C)C2)C1c1ccccn1 (racemic) [12b, (±)-Ethyl 2-amino-7,7-dimethyl-1–(4-methylphenyl)-5-oxo-1-phenyl-4-(pyrdin-2-yl)-1,4,5,6,7,8-hexahydroquinoline-3-carboxylate] | < 10% | < 10% | 26% | < 10% | < 10% | < 10% | 13% | 23% | 30% | < 10% | < 10% | 19% | < 10% | < 10% | < 10% | < 10% | < 10% | < 10% | < 10% | < 10% | inhibition at 10 µM (SN 12C): < 10%; inhibition at 10 µM (PC-3): < 10%; inhibition at 10 µM (MCF7): 12%; inhibition at 10 µM (CCRF-CEM): < 10%; inhibition at 10 µM (CAKI-1): 16%; inhibition at 10 µM (HCT-116): < 10%; inhibition at 10 µM (SK-MEL-28): < 10%; inhibition at 10 µM (U251): < 10%
CCOC(=O)C1=C(N)N(c2ccc(C)cc2)C2=C(C(=O)CC(C)(C)C2)C1c1ccccc1Cl (racemic) [6b, (±)-Ethyl 2-amino-4–(2-chlorophenyl)-7,7-dimethyl-1–(4-methylphenyl)-5-oxo-1,4,5,6,7,8-hexahydroquinoline-3-carboxylate] | < 10% | < 10% | 23% | < 10% | < 10% | < 10% | < 10% | 19% | 11% | < 10% | 30% | 15% | < 10% | < 10% | < 10% | 19% | < 10% | < 10% | < 10% | 20% | inhibition at 10 µM (SN 12C): < 10%; inhibition at 10 µM (PC-3): 43%; inhibition at 10 µM (MCF7): 32%; inhibition at 10 µM (CCRF-CEM): < 10%; inhibition at 10 µM (CAKI-1): 31%; inhibition at 10 µM (HCT-116): 17%; inhibition at 10 µM (SK-MEL-28): < 10%; inhibition at 10 µM (U251): < 10%
